From article PMC6269498, “Increased activity of MdFRK2, a high-affinity fructokinase, leads to upregulation of sorbitol metabolism and downregulation of sucrose metabolism in apple leaves” (Horticulture Research, 2018)

Tested on: MdFRK1
Assay: coupled spectrophotometric assay (phosphoglucoisomerase / G6P dehydrogenase), […] nm
Type: biochemical, Malus domestica
Conditions: 50 mM Tris-HCl pH 8.0, 4 mM MgCl2, 2.5 mM ATP; substrate inhibition above 2 mM fructose

For `OCC1(O)OC[C@@H](O)[C@@H](O)[C@@H]1O` (stereo partly shown) [fructose], the Km was 620 µM.
